From article PMC6211230, “Assessment of the antiproliferative and apoptotic roles of sulfonamide carbonic anhydrase IX inhibitors in HeLa cancer cell line” (Journal of Enzyme Inhibition and Medicinal Chemistry, 2018)

Experiments:
Assay type in all cases: cell-based, human
[1] = tested on: HeLa cells; assay: Extracellular pH (blood gas device); conditions: HeLa media, dose-dependent, initial pHe 6.4
Procedure: (§1) Intracellular pH was measured according to the protocol of the fluorometric Intracellular pH Assay Kit (Sigma, Schnelldorf, Germany, MAK-150). Fluorescent BCFL-AM indicator that was able to pass through the cell membrane was used to measure intracellular pH fluctuations in the fluorometric intracellular pH kit. BCFL-AM was utilised to measure the reductions in intracellular pH of the cells that had been treated by various conditions. The cells were plated on black plates, as 6 × 10^4 in each well of the plate, and incubated for 24 h. The medium was replaced with BCFL-AM Reagent which had been prepared in 100 µl of HBS solution (Hank’s buffer with 20 mM HEPES, 5 mM Probenecid), then the cells were incubated at 37 °C in an atmosphere of 5% CO2 for 30 min (protected from light). Sulfonamide compound at doses of 0–25 μM was added to the HBS solution. In the next 5 min, the measurement was performed at wavelengths of 490 nm (excitation) 535 nm (emission) in spectrofluorimetry (Spectramax, M5). Extracellular pHe and lactate levels were measured with commercial kit by the blood gas device (ABL90 FLEX PLUS, Radiometer, Copenhagen, Denmark) which is routinely used in the clinical biochemistry laboratory of hospital. After the application of the substance in this method, the media were analysed directly by the device.

[2] = tested on: HeLa cells; assay: Mitochondrial membrane potential (JC-1); conditions: 0–25 μM
Procedure: Mitochondrial membrane potential (MMP) changes appearing in the intrinsic pathway of mitochondria were spectrophotometrically detected. MMP was measured in a Spectramax, M5 fluorimetric device, at wavelengths of 490 nm (excitation), 530 nm(emission) according to the fluorometric Mitochondria Staining Kit (Sigma-Aldrich, Schnelldorf, Germany, CS0390) protocol.

[3] = tested on: HeLa cells; assay: Annexin V-FITC/PI flow cytometry apoptosis; conditions: from 10 μM, 24 h
Procedure: The apoptotic effect of the substances was explored with the commercial FITC Annexin V Apoptosis Detection Kit I (BD Biosciences, New Jersey, USA) according to the manufacturer’s protocol. The cells were plated on 6-well plates (5 × 10^5 cells/well), and following 24 h incubation, sulfonamide compounds at concentrations of 10 and 25 μM were administered, followed by incubation for 24 h. The cells were raised by trypsin handling, and transferred into new tubes within 1X binding buffer, as 1 × 10^6 in each tube, which was incubated for 15 min at room temperature. 5 μL of fluorochrome-conjugated Annexin V and 5 μL of Propidium Iodide dyes were then added. 100 μl 1X binding buffer was added to the cells, and they were then centrifuged at 1200 rpm, for 5 min. Finally, the cells were analysed in flow cytometry (BD Via, New Jersey, USA).

[4] = tested on: PNT-1A; assay: WST-1 cytotoxicity, PNT-1A normal cells; conditions: PNT-1A normal cell
Procedure: Cancer and normal cell lines were purchased from ATCC and stored in liquid nitrogen. HT-29 (colon adenoma cancer), HeLa (cervix adenoma cancer cell), MDA-MB-231 (breast adenoma cancer cell) and HEK-293 (embryonic kidney epithelial cell), PNT-1A (normal prostate cells) cell lines were incubated in DMEM: F-12 and RPMI-1640, including 10% Foetal Bovine Serum (FBS), 100 μg/mL streptomycin/100 IU/mL penicillin, at 37 °C in an incubator containing 5% CO2, 95% air in a humid atmosphere.
The cytotoxic effects of the substances were evaluated with WST-1 kits (Roche, Germany) in accordance with the manufacturer’s protocols. The cells were plated on 96-well plates (10^4 cells in each well). After incubation for 24 h, the media were discarded and the substances and Cisplatin as the control drug, at doses of 0, 2.5, 5, 10, 25, 50, 100, and 200 μM, were incubated for 24, 48, and 72 h. WST-1 reactive of 10 µl was added to all wells. Following 4 h incubation, the measurements were taken on a plate reader (Spectramax M5) at wavelengths of 450 and 630 nm. Graphs were then created and the IC50 value of each substance was calculated.

[5] = tested on: HeLa cells; assay: Intracellular ROS detection; conditions: 0–25 μM
Procedure: Intracellular free radicals were measured using the Cellular Reactive Oxygen Species Detection Assay commercial kit (Red Fluorescence, Abcam, Cambridge-UK, 186027). In this kit, a fluorescence probe that is permeable to the cell is used. When the probe reacts with ROS, it produces red fluorescence. The process was applied following kit protocol. The cells were plated on black plates, as 3 × 10^4 in 100 µl, and incubated for 24 h. Sulfonamide compounds in PBS were administered at doses of 0–25 μM and incubated at 37 °C in an atmosphere of 5% CO2 for 1 h (protected from light). After the compounds were poured out, the wells were filled with 100 µl of ROS Deep Red Working Solution and incubated at 37 °C in an atmosphere of 5% CO2 for 1 h. A fluorometry device (Spectramax, M5) Ex/Em = 650/675 nm (cut off = 665 nm) was used to take the measurements.

[6] = tested on: HeLa cells; assay: Intracellular pH (BCFL-AM fluorometric kit); conditions: 0–25 μM
Procedure: as §1

[7] = tested on: HeLa cells; assay: gamma-H2AX immunofluorescence (DNA damage); conditions: 10 and 25 μM, 24 h
Procedure: HeLa cells (1 × 10^4/ml) were seeded in 12-well cell culture dishes and after 24 h they were administered with the sulfonamide derivative compounds at doses of 10 and 25 µM and incubated for 24 h. The cells were washed with PBS and fixed with 100% methanol at −20 °C overnight, which was followed by PBS washing three times for 10 min for each washing. The cells were treated with 0.2% Triton X-100 in a shaker, at room temperature for 5 min. They were washed with PBS, and 1% BSA-containing PBS was then added, and incubation with primary mouse monoclonal anti-γ-H2AX antibody (Cell Signalling Technology, Danvers, MA, USA) was applied at 37 °C for 1 h. The cells were washed with PBS for 5 min three times. Secondary goat anti-mouse Alexa-488-conjugated IgG (Invitrogen, Thermo Fisher Scientific, Waltham, MA, USA) was administered and the cells were incubated at 37 °C for 20 min, followed by PBS washing for 4–5 min three times. 1 ml 70% EtOH was added, and at +4 °C, released to incubation for 5 min. 1 ml 100% EtOH was added in a shaker, which was then incubated at room temperature for 1–2 min. The nucleus was stained with DAPI and the images were recorded using an Olympus Inverted fluorescence microscope (Olympus CKX 53, DP73, Tokyo, Japan).

NS(=O)(=O)c1ccc(CCN=Cc2cc(Cl)ccc2O)cc1 [Compound A-1]
extracellular pH (pHe) reached [1]: 7.3 | mitochondrial membrane potential (MMP) [2]: dose-dependent decrease in MMP | early apoptosis [3]: 48.7% | IC50 ([4]; 24 h): 389 µM | IC50 ([4]; 48 h): 110 µM | IC50 ([4]; 72 h): 203 µM | intracellular ROS [5]: increase the intracellular ROS in HeLa cells in a dose-dependent manner | intracellular pH (pHi) change [6]: reduction of pHi | nuclear γ-H2AX foci [7]: increase the number of nuclear γ-H2AXfoci
